Assay results as given in PMC9007951, “Systematically evaluating DOTATATE and FDG as PET immuno-imaging tracers of cardiovascular inflammation” (Scientific Reports, 2022).

How the values were obtained:
[1] = [^64Cu]Cu-DOTATATE distribution in blood fractions (plasma vs cells); type: in vivo, mice; conditions: 120 min after radiotracer injection, mean ± SEM, N = 5
Protocol: Wild-type and atherosclerotic animals were injected with approximately 1.85 MBq of [^64Cu]Cu-DOTATATE and euthanized at either 1, 5, 15, 30, 60 or 120 min after injection (Supplementary Fig. S1A) to evaluate the tracer’s biodistribution. After euthanasia, an insulin syringe was used to collect blood samples from the right ventricle. Blood samples were used for the establishment of pharmacokinetics profile. Mice were then perfused with 20 mL of phosphate-buffered saline (PBS) and tissues of interest (heart, aorta, bone marrow, spleen, liver, stomach, bladder, kidneys, intestines, lungs, adrenal gland, muscles and pancreas) were harvested. Tissues were blotted for gamma counting on a Wizard2 2480 automatic gamma counter (Perkin Elmer, Waltham, MA). Values were corrected for decay and normalized to tissue weight to express radioactivity concentration as percentage injected dose per gram (%ID/g). […] To investigate the tracer’s distribution within different blood compartments, after gamma counting, 100 μL of blood were spun down at 2000 g for 15 min at 4 °C. Plasma (supernatant) and cells (pellet) were gamma counted and expressed as percentage of total activity. […] Percentage of activity in mononuclear and polynuclear cells was calculated.

[2] = Ex vivo autoradiography of heart and aorta; type: in vivo, mice; conditions: for ratio between the signal in infarcted and remote myocardium: MI mice, N = 4 per group
Protocol: Tissues (heart and aorta) were placed in a film cassette against a phosphorimaging plate (BASMS-2325, Fujifilm) at − 20 °C to determine the regional radioactivity distribution. Exposure time was optimized to dose, tracer, and tissue uptake differences. Tissues from the heart of [^18F]F-FDG injected animals were exposed for 5 min, [^18F]F-FDG infused aortas were exposed for 30 min and tissues from animals in the [^64Cu]Cu-DOTATATE group were exposed for 60 min. The plates were read at a pixel resolution of 25 μm with a Typhoon 7000IP plate reader (GE Healthcare, Pittsburgh, PA). Images were analyzed using ImageJ software v1.52 (Madison, WI).

[3] = test system: atherosclerotic rabbits; assay: In vivo PET/MR imaging of aortic inflammation in rabbits; parameters: species or system New Zealand White rabbits; conditions: for SUVmax abdominal aorta: PET/MRI, median
Source text: For the rabbit studies, 3 months old male New Zealand White (NZW) rabbits (N = 47) were purchased from Charles River Laboratories (Wilmington, MA). Randomly assigned control rabbits (N = 11) were kept on chow diet and imaged with PET/MR. Among these some animals were euthanized for biodistribution assays (N = 6) or used for time-activity characterization of aorta signal (N = 3). For the atherosclerosis model, remaining rabbits (N = 36) were placed on Western diet (initial 8 weeks on regular chow enriched with 0.3% cholesterol and 4.7% coconut oil, and the remaining time period on 0.15% enriched cholesterol diet from Research diets, Inc. Brunswick, NJ). In order to induce atherosclerotic lesions, these rabbits were subjected to two endothelial denudations of the aorta through the right and left femoral artery at 2 and 6 weeks after diet initiation, respectively, as described previously. Briefly, femoral artery angioplasty was performed under fluoroscopic guidance using a 4F-Fogarty embolectomy catheter. Once catheter is inserted, catheter is positioned in the thoracic descending aorta region. The balloon was then inflated to 2 atm. Catheter is then pulled back over the entire length of the aorta down to the iliac bifurcation, and the pullback procedure is repeated for two additional times. Catheter is then removed, and femoral artery is ligated. Rabbits with atherosclerosis were imaged 4 months after diet initiation (N = 36). Among these animals some were euthanized for ex vivo biodistribution analyses (N = 9), used for time-activity characterization of aorta signal (N = 3) or near infra-red imaging ([…]). The remaining atherosclerotic rabbits were fed a Western diet for an additional 3 months (N = 9) to advance atherosclerosis. At the end of the 3-month period, these rabbits were imaged and euthanized.
In vivo imaging in rabbits was performed on a 3 Tesla Biograph mMR (Siemens, Erlangen, Germany) Positron Emission Tomography/Magnetic Resonance Imaging (PET/MRI) clinical scanner. To establish the optimal imaging time-point for [^68Ga]Ga-DOTATATE aortic imaging in this animal model, 5 rabbits underwent dynamic PET imaging for 3 h immediately after injection of approximately 190 MBq of the tracer. Rabbits where injected intravenously via the ear vein with approximately 190 MBq of either [^18F]F- FDG or [^68Ga]Ga-DOTATATE. Rabbits undergoing [^18F]F-FDG scans were fasted for 3–4 h before injection to avoid tracer uptake in the bowels, as previously validated. […]
Using OsiriX v5.6 software (OsiriX Foundation, Geneva, Switzerland), regions of interest (ROIs) were drawn to determine organ radioactivity concentration. […]

[4] = mice; cited from earlier work
Source text: This feature is important when performing in vivo imaging and especially in the vasculature, whose signal can be easily contaminated by the blood pool because of partial volume errors. […] We further used the combination of in ...

blood radioactivity contained in plasma ([1]; atherosclerotic Apoe^−/− mice) [%]	blood radioactivity contained in plasma ([1]; control C57Bl/6 mice) [%]	ratio between the signal in infarcted and remote myocardium [2]	signal in atherosclerotic plaques compared to healthy (no plaque) areas of the aorta ([2]; atherosclerotic mice, N = 4)	SUVmax abdominal aorta ([3]; athero4mo rabbits, circulation 120 min ([^68Ga]Ga-DOTATATE, N = 32) or 180 min ([^18F]F-FDG, N = 27))	SUVmax abdominal aorta ([3]; athero7mo rabbits, N = 7)	SUVmax abdominal aorta ([3]; control rabbits, circulation 120 min ([^68Ga]Ga-DOTATATE, N = 10) or 180 min ([^18F]F-FDG, N = 11))	SMILES	blood half-life [4] [min]	change of tracer accumulation (SUVmax abdominal aorta) athero7mo vs athero4mo ([3]; rabbits kept on Western Diet for 7 months, paired analysis, N = 7, p > 0.9999)
88.7 ± 0.9	83.4 ± 0.6	approximately 2	twofold higher				C[C@@H](O)[C@H](NC(=O)[C@@H]1CSSC[C@H](NC(=O)[C@@H](Cc2ccccc2)NC(=O)CN2CCN(CC(=O)O)CCN(CC(=O)O)CCN(CC(=O)O)CC2)C(=O)N[C@@H](Cc2ccc(O)cc2)C(=O)N[C@H](Cc2c[nH]c3ccccc23)C(=O)N[C@@H](CCCCN)C(=O)N[C@@H]([C@@H](C)O)C(=O)N1)C(=O)O [[^64Cu]Cu-DOTATATE, metal not drawn]		
		~1		0.446	0.515	0.349	OC[C@H]1OC(O)[C@H]([18F])[C@@H](O)[C@@H]1O (stereo partly shown) [[^18F]F-FDG, [^18F]F-fluorodeoxyglucose]	5.1	
							C[C@@H](O)[C@H](NC(=O)[C@@H]1CSSC[C@H](NC(=O)[C@@H](Cc2ccccc2)NC(=O)CN2CCN(CC(=O)O)CCN(CC(=O)O)CCN(CC(=O)O)CC2)C(=O)N[C@@H](Cc2ccc(O)cc2)C(=O)N[C@H](Cc2c[nH]c3ccccc23)C(=O)N[C@@H](CCCCN)C(=O)N[C@@H]([C@@H](C)O)C(=O)N1)C(=O)O [[^68Ga]Ga-DOTATATE, metal not drawn]		did not detect a further increase in tracer accumulation
